Experimental data: patent US7223759B2, “Antibacterial 3,5-diaminopiperidine-substituted aromatic and heteroaromatic compounds” (Anadys Pharmaceuticals, Inc., priority 2003, dated 2007)
Read-outs that look alike come from different tables or passages of the source.

Test system: Escherichia coli (ATCC25922) or Staphylococcus aureus (ATCC25923)
Assay: Antibacterial MIC, microdilution method in Mueller-Hinton medium
Assay type: cell-based
Details: for MIC: Escherichia coli, 18 h, read-out: Potency (MIC)
In short: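 Read after 18 h incubation at 35° C, MIC is the lowest compound level that blocked growth. Compounds were tested in duplicate over 64–0.5 μg/ml two-fold dilutions using Mueller-Hinton microdilution per NCCLS standard.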

[1] = MIC in E. coli or S. aureus, two-fold serial dilutions 64 to 0.5 μg/ml in duplicate, 18 hours of incubation at 35° C.

N[C@@H]1C[C@H](N)CN(c2nc(Nc3ccc(S(=O)(=O)Nc4ccccn4)cc3)nc(N3C[C@H](N)C[C@H](N)C3)n2)C1 [N-[4-(pyridin-2-ylsulfamoyl)-phenyl]-4,6-Bis-((3R,5S)-3,5-diamino-piperidin-1-yl)-[1,3,5]triazine-2-amine]
MIC: > 64 µg/mL

Cc1cc(=O)oc2cc(Nc3nc(N4C[C@H](N)C[C@H](N)C4)nc(N4C[C@@H](N)C[C@@H](O)C4)n3)ccc12 [7-[4-((3S,5R)-3-Amino-5-hydroxy-piperidin-1-yl)-6-((3R,5S)-3,5-diamino-piperidin-1-yl)-[1,3,5]triazin-2-ylamino]-4-methyl-chromen-2-one]
MIC [1]: > 64 µg/mL

N[C@@H]1C[C@H](N)CN(c2nc(Nc3ccc(C(=O)N4CCc5cc(Br)ccc54)c(O)c3)nc(N3C[C@H](N)C[C@H](N)C3)n2)C1 [N-[4-(5-bromo-2,3-dihydro-indole-1-carbonyl)-3-hydroxy-phenyl]-4,6-Bis-((3R,5S)-3,5-diamino-piperidin-1-yl)-[1,3,5]triazine-2-amine]
MIC: < 16 µg/mL

N[C@@H]1C[C@H](N)CN(c2nc(Nc3ccc(C(=O)CC(=O)Nc4ccc(S(=O)(=O)Nc5ccc6cn[nH]c6c5)cc4)cc3)nc(N3C[C@H](N)C[C@H](N)C3)n2)C1 [N-(4-{2-[4-(1H-indazol-6-ylsulfamoyl)-phenylcarbamoyl]-acetyl}-phenyl)-4,6-Bis-((3R,5S)-3,5-diamino-piperidin-1-yl)-[1,3,5]triazine-2-amine]
MIC: < 64 µg/mL

N[C@@H]1C[C@H](N)CN(c2nc(Nc3ccc(S(=O)(=O)Nc4ccc5cn[nH]c5c4)cc3)nc(NC3CCCNC3)n2)C1 (stereo partly drawn) [4-[4-((3S,5R)-3,5-Diamino-piperidin-1-yl)-6-(piperidin-3-ylamino)-[1,3,5]triazin-2-ylamino]-N-(1H-indazol-6-yl)-benzenesulfonamide]
MIC [1]: > 64 µg/mL

NC(=O)c1ccc(NC(=O)c2ccc(Nc3nc(N4C[C@H](N)C[C@H](N)C4)nc(N4C[C@H](N)C[C@H](N)C4)n3)cc2O)cc1 [N-[4-(4-carbamoyl-phenylcarbamoyl)-3-hydroxy-phenyl]-4,6-Bis-((3R,5S)-3,5-diamino-piperidin-1-yl)-[1,3,5]triazine-2-amine]
MIC: > 64 µg/mL

N[C@@H]1C[C@H](N)CN(c2nc(Nc3ccc(NC(=O)c4ccc(Cl)cc4)c(O)c3)nc(N3CCNCC3)n2)C1 [4-Chloro-N-{4-[4-((3S,5R)-3,5-diamino-piperidin-1-yl)-6-piperazin-1-yl-[1,3,5]triazin-2-ylamino]-2-hydroxy-phenyl}-benzamide]
MIC: < 16 µg/mL

NC[C@@H]1C[C@H](CN)CN(c2nc(Nc3ccc(C(=O)CC(=O)Nc4ccccc4Cl)cc3)nc(N3C[C@H](N)C[C@H](N)C3)n2)C1 [3-{4-[4-((3R,5S)-3,5-Bis-(aminomethyl)-piperidin-1-yl)-6-((3R,5S)-3,5-diamino-piperidin-1-yl)-[1,3,5]triazin-2-ylamino]-phenyl}-N-(2-chloro-phenyl)-3-oxo-propionamide]
MIC: < 64 µg/mL

N[C@@H]1C[C@H](N)CN(c2nc(NNc3ccc([N+](=O)[O-])cc3[N+](=O)[O-])nc(N3C[C@H](N)C[C@H](N)C3)n2)C1 [N-(4,6-Bis-((3R,5S)-3,5-diamino-piperidin-1-yl)-[1,3,5]triazin-2-yl)-N′-(2,4-Dinitro-phenyl)-hydrazine]
MIC [1]: > 64 µg/mL

N[C@@H]1C[C@H](N)CN(c2nc(NNc3cccc(Cl)c3)nc(N3C[C@H](N)C[C@H](N)C3)n2)C1 [N-(4,6-Bis-((3R,5S)-3,5-diamino-piperidin-1-yl)-[1,3,5]triazin-2-yl)-N′-(3-Chloro-phenyl)-hydrazine]
MIC: < 64 µg/mL

N[C@@H]1C[C@H](N)CN(c2nc(Nc3ccc(C(=O)Nc4ccc5c(c4)OC(F)(F)O5)c(O)c3)nc(N3C[C@H](N)C[C@H](N)C3)n2)C1 [N-[4-(2,2-difluoro-benzo[1,3]dioxol-5-ylcarbamoyl)-3-hydroxy-phenyl]-4,6-Bis-((3R,5S)-3,5-diamino-piperidin-1-yl)-[1,3,5]triazine-2-amine]
MIC: < 16 µg/mL

N[C@@H]1C[C@H](N)CN(c2nc(Nc3ccc(S(=O)(=O)Nc4ccc5cn[nH]c5c4)cc3)nc(N3CCC(N4CCCC4)CC3)n2)C1 [4-[4-((3S,5R)-3,5-Diamino-piperidin-1-yl)-6-(4-pyrrolidin-1-yl-piperidin-1-yl)-[1,3,5]triazin-2-ylamino]-N-(1H-indazol-6-yl)-benzenesulfonamide]
MIC [1]: > 64 µg/mL

Cl.O=C(Nc1cc(C(F)(F)F)ccc1Cl)c1ccc(Nc2nc(N3CCCCC3)nc(N3CCCCC3)n2)cc1O [N-[4-(2-chloro-5-trifluoromethyl-phenylcarbamoyl)-3-hydroxy-phenyl]-4,6-Biss-((3R,5S)-3,5-diamino-piperidin-1-yl)-[1,3,5]triazine-2-amine]
MIC [1]: < 64 µg/mL

N[C@@H]1C[C@H](N)CN(c2nc(Nc3ccc(C(=O)CC(=O)Nc4ccccc4Cl)cc3)nc(N3C[C@@H](O)[C@@H](O)C3)n2)C1 [N-(2-Chloro-phenyl)-3-{4-[4-((3S,5R)-3,5-diamino-piperidin-1-yl)-6-((3R,4S)-3,4-dihydroxy-pyrrolidin-1-yl)-[1,3,5]triazin-2-ylamino]-phenyl}-3-oxo-propionamide]
MIC: < 64 µg/mL

NC[C@@H]1CN(c2nc(Nc3ccc(C(=O)Oc4ccccc4)c(O)c3)nc(N3C[C@H](N)C[C@H](N)C3)n2)CC[C@@H]1O [4-[4-((3R,4S)-3-Aminomethyl-4-hydroxy-piperidin-1-yl)-6-((3R,5S)-3,5-diamino-piperidin-1-yl)-[1,3,5]triazin-2-ylamino]-2-hydroxy-benzoic acidphenylester]
Potency (MIC) [1]: − (− means MIC>64 μg/ml in E. coli or S. aureus)

COc1ccc(OC)c(NC(=O)c2ccc(Nc3nc(N4C[C@H](N)C[C@H](N)C4)nc(N4C[C@H](N)C[C@H](N)C4)n3)cc2O)c1 [N-[4-(2,5-dimethoxy-phenylcarbamoyl)-3-hydroxy-phenyl]-4,6-Bis-((3R,5S)-3,5-diamino-piperidin-1-yl)-[1,3,5]triazine-2-amine]
MIC: < 16 µg/mL

NC1CCN(c2nc(N3C[C@H](N)C[C@H](N)C3)nc(N3C[C@H](N)C[C@H](N)C3)n2)CC1 [1-(4,6-Bis-((3R,5S)-3,5-diamino-piperidin-1-yl)-[1,3,5]triazin-2-yl)-piperidine-3-carboxylic aciddiethylamide]
MIC [1]: > 64 µg/mL

COc1ccc(OC)c(Nc2nc(N3C[C@H](N)C[C@H](N)C3)nc(N3C[C@H](N)C[C@H](N)C3)n2)c1 [N-(2,5-dimethoxy-phenyl)-4,6-Bis-((3R,5S)-3,5-diamino-piperidin-1-yl)-[1,3,5]triazine-2-amine]
MIC [1]: > 64 µg/mL

Cc1cc(Nc2nc(N3C[C@H](N)C[C@H](N)C3)nc(N3C[C@H](N)C[C@H](N)C3)n2)no1.Cl [N-(5-methyl-isoxazol-3-yl)-4,6-Bis-((3R,5S)-3,5-diamino-piperidin-1-yl)-[1,3,5]triazine-2-amine]
MIC [1]: > 64 µg/mL

Cc1ccc(S(=O)(=O)N(Cc2ccccc2)c2ccc(Nc3nc(N4C[C@H](N)C[C@H](N)C4)nc(N4C[C@H](O)C[C@H]4CN)n3)cc2O)cc1 [N-{4-[4-((2S,4R)-2-Aminomethyl-4-hydroxy-pyrrolidin-1-yl)-6-((3R,5S)-3,5-diamino-piperidin-1-yl)-[1,3,5]triazin-2-ylamino]-2-hydroxy-phenyl}-N-benzyl-4-methyl-benzenesulfonamide]
MIC: < 64 µg/mL
